This is an account of results in patent US11229714B2, “Electrochemical reduction or prevention of infections” (WASHINGTON STATE UNIVERSITY, priority 2015, dated 2022).

For assay [1], the system named is Acinetobacter baumannii biofilms. The assay is described as follows: In vitro A. baumannii biofilm viable cell count (CFU, drop-plate). It is filed as cell-based.
Protocol: Acinetobacter baumannii biofilms were used to test efficacy of the e-scaffold. An overnight culture of Acinetobacter baumannii (ATCC #BAA-1605) was grown in full-strength Luria Broth (LB) medium (Sigma-Aldrich, catalog #L3522) and was re-suspended in 5% LB medium (OD600≈0.5). […] After 2 hours of initial attachment, the bacterial suspension was removed and the biofilms were washed twice to remove planktonic cells and then refreshed with 5% LB medium. Biofilms were allowed to develop for 24 hours. Before the e-scaffolds were applied, the bulk liquid was refreshed.
E-scaffolds were sterilized by autoclaving (121° C., 15 min) and were saturated with sterilized liquid medium before being applied to existing Acinetobacter baumannii biofilms. The scaffolds were then polarized at −600 mVAg/AgCl for 24 hours, after which biofilms were processed for the quantification of viable cells by scraping the e-scaffold and biofilms from the glass surfaces of the petri dish into 5 ml of LB medium (1 g/L). The suspensions were centrifuged, and the resulting cell pellet was re-suspended in 1 ml of LB medium (1 g/L), and serial dilutions were prepared. Colony-forming units (“CFU”) were counted using a drop-plate count method. […]
To test whether H2O2 can remove biofilms in vitro and from infected porcine explants, exogenous H2O2 (VWR, Catalog #RC3819-16, adjusted to a concentration similar to that produced by the e-scaffold) was added to Acinetobacter baumannii biofilms. […] First, the biofilms were exposed to the total calculated amount of H2O2 in a single administration. […]
Catalase (Sigma-Aldrich, catalog #C1345) was added to an Acinetobacter baumannii biofilm and measured protection against H2O2 produced by the e-scaffold. Prior to addition, the H2O2 decomposition rate per unit of catalase was determined from H2O2 microelectrode measurements. The total amount of catalase required per min for complete decomposition of H2O2 was calculated based on the rate of H2O2 generation by the e-scaffold. To ensure complete H2O2 decomposition, catalase was added in excess of the calculated value (5×=0.05 mg/ml). […]
Assay [2] concerns P. aeruginosa PAO1 persister cells. The experiment in a line: Treatment of persister cells isolated from ciprofloxacin-treated biofilms (CFU). It is filed as cell-based, Pseudomonas aeruginosa. The protocol:
(§1) To identify and isolate P. aeruginosa PAO1 persister cells, planktonic culture was grown to the stationary phase and the dose-dependent killing curve for ciprofloxacin (0-200 μg/ml) was investigated. […] Assessments were then performed on biofilms regrown from cells recovered after no treatment (“untreated biofilms”), cells recovered after e-scaffold treatment (“e-scaffold treated biofilm”), and “persister cells” that were isolated from biofilms treated with 200 μg/ml ciprofloxacin for 3.5 hours. The treated samples were washed with 0.9% NaCl and suspended in LB to isolate persister cells from ciprofloxacin-treated biofilms for subsequent experiments as described in more detail below.
The total number of viable cells was determined for ciprofloxacin-treated and untreated biofilms using the modified drop-plate cell counting method. Remaining persister cells were then exposed to either 200 μg/ml ciprofloxacin or e-scaffold treatment for 6 hours. Final CFU values were then determined.

The test system of assay [3] is P. aeruginosa PAO1 planktonic culture. The assay is described as follows: Dose-dependent killing curve for ciprofloxacin, stationary phase planktonic culture. It is filed as cell-based, Pseudomonas aeruginosa. As to conditions: 0-200 μg/ml, 200× of MIC. The method, then:
as §1

Assay [4] relates to P. aeruginosa PAO1 biofilm cells. The experiment in a line: SEM imaging of biofilm cells. It is filed as cell-based, Pseudomonas aeruginosa. As to conditions: 24 h treatment. The method, then:
For SEM imaging, biofilms were grown for 24 hours on UV-sterilized, 0.22 μm type GV membrane filters placed in sterile 6-well plates. Exogenous H2O2 was added continuously at an average 0.008 mmol/h for 24 hours to mimic the e-scaffold generated H2O2 treatment. After treatment for 24 hours, both e-scaffolds and membrane filters with biofilms were aseptically collected from the untreated, e-scaffold treated, and exogenous H2O2 treated wells. The membrane filters and e-scaffolds were fixed overnight with 2.5% glutaraldehyde and 2% paraformaldehyde in 0.1 M phosphate buffer, followed by rinsing with 0.1 M phosphate buffer. The membranes and e-scaffolds were then dehydrated gradually by being washed sequentially with 10%, 30%, 50%, 70%, and 95% alcohol (10 min each) and 100% alcohol (3×10 min each). Samples were then sputter-coated with gold prior to field emission in-lens scanning electron microscopy imaging.

The test system is the same in assay [5]. The assay is described as follows: Intracellular hydroxyl free radical formation (HPF fluorescence). It is filed as cell-based, Pseudomonas aeruginosa. As to conditions: treated vs untreated biofilm cells. The protocol: Intracellular hydroxyl free radical (OH•) formation was detected using 5 μM of a fluorescent reporter dye, 3′-(p-hydroxyphenyl fluorescein) (HPF). […] The samples were centrifuged (10,000×g for 10 min), and then the medium was replaced with a final concentration of 5 μM HPF prepared in 500 μL of 0.1 M PBS. After staining in the dark at room temperature for 15 minutes, samples were centrifuged at 10,000×g for 10 min. Supernatant was removed, and cells were rinsed and re-suspended with PBS. An aliquot (100 μL) was added to each well in a 96-well plate, and fluorescence intensity was quantified using a microplate reader with excitation at 490 and emission at 515 nm. For the OH• formation assays, fluorescence was estimated as ((Fluorescence with dye− Fluorescence without dye)/(Fluorescence without dye))*(100).

The subject of assay [6] is P. aeruginosa PAO1 biofilms. As to conditions: general statement, no e-scaffold; cited from earlier work.
Assay [7] has as its system P. aeruginosa PAO1 biofilms. The experiment in a line: Tobramycin susceptibility of P. aeruginosa PAO1 biofilms with or without e-scaffold (CFU). It is filed as cell-based, Pseudomonas aeruginosa. As to conditions: biofilms regrown from persister cells, 10 μg/ml tobramycin, no e-scaffold. The method, then:
For the following experiments, 20 g/L (1×) Luria broth (LB) medium (Sigma-Aldrich, catalog #L3522) was used to grow P. aeruginosa PAO1 cultures overnight, and 1 g/L (0.05×) LB was used as the growth medium for biofilms. Tobramycin (Sigma Aldrich, catalog #T4014) and ciprofloxacin (Sigma Aldrich, catalog #17850) solutions were diluted in 1 g/L (0.05×) LB for antibiotic susceptibility experiments and persister cell isolation, respectively. Minimum inhibitory concentrations (MICs) were determined for both antibiotics following the Clinical and Laboratory Standards Institute (CLSI) protocol. Other compounds used include 3′-p-hydroxyphenyl fluorescein dye (Invitrogen, catalog #H36004), propidium iodide (Invitrogen, catalog #L-7012), thiourea (AK Scientific, Inc., catalog #S726), and H2O2 (VWR, Catalog #RC3819-16).
Frozen stocks of P. aeruginosa PAO1 were cultured overnight in LB at 37° C. on a rotating table. For biofilm experiments, overnight culture was adjusted to OD600≈0.5 in LB and used as an inoculum. 2 ml of culture was used to inoculate sterile glass bottom petri dishes and allowed to form biofilms for 24 hours. Such one day-old biofilms were treated with e-scaffolds for 24 hours. Untreated and e-scaffold treated biofilm cells were then washed twice to remove loosely attached cells. Remaining cells were recovered for antibiotic susceptibility testing. […]

In the case of catalase, the effect on biofilm result in assay [1] (catalase itself (0.05 mg/ml)) was “no significant effect”.
Consider `O=C(O)c1cn(C2CC2)c2cc(N3CCNCC3)c(F)cc2c1=O` [ciprofloxacin], for which, in assay [2] (additional 6 hours of 200 μg/ml ciprofloxacin treatment), the “change of final population of persister cells” value is given as “did not change”. For the same compound, in assay [2] (biofilms treated with 200 μg/ml ciprofloxacin for 3.5 hours), the “share of total biofilm cells belonging to the persister population” value is reported as “about 0.31%”. Moreover, the “ciprofloxacin concentration above which the surviving subpopulation plateaus” value in assay [3] is “above 50 μg/ml”.
Consider `OO` [H2O2, hydrogen peroxide], for which the “cell morphology in SEM images” value in assay [4] is recorded as “membrane-compromised cells”. The “reduction in Acinetobacter baumannii CFU” value in assay [1] (45 mM H2O2 in a single administration, vs control without H2O2) is reported as about 3 log. Moreover, in assay [1] (equivalent concentration of H2O2 delivered continuously over 24 hours), the “reduction in bacterial counts” value was about 2 log. Besides, the “HPF fluorescence (OH• formation)” value in assay [5] is reported as “increased fluorescence”.
In the case of `NC[C@H]1O[C@H](O[C@H]2[C@H](O)[C@@H](O[C@H]3O[C@H](CO)[C@@H](O)[C@H](N)[C@H]3O)[C@H](N)C[C@@H]2N)[C@H](N)C[C@@H]1O` [tobramycin], the “tobramycin typically required for P. aeruginosa PAO1 biofilm treatment” value in assay [6] is on record as > 500 × of MIC. In addition, the “reduction in viable cells” value in assay [7] is on record as 1.2±0.16 log.
